SMILES strings stand for the structures.

For orientation: IC50 means the concentration that inhibits the measured activity by half.

In this assay the test system is AKT protein phosphorylated on serine 473 (P-AKT-S473). Nature of the assay: Study of pAKT expression in PC3 human prostate carcinoma cells measured by the MSD Multi-spot Biomarker Detection technique (Test B). To be noted: PC-3, inhibition of AKT phosphorylation (P-AKT-S473), MSD sandwich immunoassay, 1 to 2 h incubation, absolute IC50, mean of 2 experiments. The format is cell-based. On the procedure:
The inhibitory activity of the molecules on AKT phosphorylation is measured either by western blotting using the technique described below, or by the MSD Multi-spot Biomarker detection technique from Meso Scale Discovery also described below.
Study of pAKT Expression in PC3 Human Prostate Carcinoma Cells Measured by the MSD Multi-Spot Biomarker Detection Technique from Meso Scale Discovery (Test B):
The primary antibody specific for P-AKT-S473 (Kit #K151CAD) is coated on to an electrode in each well of the 96-well plates of the MSD, kit: after the addition of a protein lysate to each well, the signal is visualised by adding a secondary detection antibody labelled with an electrochemoluminescent compound. The procedure followed is that described in the kit.
On day 2, the cells are incubated in the presence or absence of the test products for 1 to 2 h at 37° C. in the presence of 5% of CO2. The molecules, diluted in dimethyl sulphoxide (DMSO Sigma #D2650), are added from a 20-times concentrated stock solution, the final percentage of DMSO being 0.1%. The molecules are tested either at a single concentration of less than or equal to 10 μM, or at increasing concentrations in a range that can extend from less than 1 nM to 10 μM.
After this incubation, the cells are lysed for the preparation of the proteins. […] At this stage, the plates containing the lysates can be stored at −20° C. or at −80° C.
The wells of the 96-well plates of the MSD kit are saturated for 1 h at ambient temperature with the blocking solution of the MSD kit. Four washes are carried out with 150 μl of Tris Wash Buffer of the MSD kit. The lysates previously prepared are transferred into the 96-well multi-spot plates of the MSD kit and incubated for 1 h at ambient temperature, with shaking. Four washes are carried out with 150 μl of Tris Wash Buffer of the MSD kit. 25 μl of the MSD sulfo-tag detection antibody solution are added to the wells and incubated for 1 h at ambient temperature, with shaking. Four washes are carried out with 150 μl of Tris Wash Buffer of the MSD kit. 150 μl of Read Buffer of the MSD kit are added to the wells and the plates are read immediately on the S12400 instrument from Meso Scale Discovery.
The instrument measures a signal for each well. Wells without cells and containing the lysis buffer serve to determine the background noise that will be subtracted from all the measurements (min). The wells containing cells in the absence of product and in the presence of 0.1% DMSO are considered to be the 100% signal (max). The percentage inhibition is calculated for each concentration of test product according to the following formula: (1-((test-min)(max-min)))×100.
2 independent experiments make it possible to calculate the mean of the IC50 values.
For `CC1CN(C(=O)Cc2nc(N3CCOCC3)cc(=O)[nH]2)c2ccccc21` (stereo not drawn) [Example 101, 2-[2-(3-methyl-2,3-dihydro-1H-indol-1-yl)-2-oxoethyl]-6-(morpholin-4-yl)pyrimidin-4(3H)-one], the IC50 is 13 nM.
Then `O=C(Cc1nc(N2CCOCC2)cc(=O)[nH]1)Nc1cccc2sccc12` [Example 105, N-(1-benzothiophen-4-yl)-2-[4-(morpholin-4-yl)-6-oxo-1,6-dihydropyrimidin-2-yl]acetamide], with 15 nM; and `O=C(Cc1nc(N2CCOCC2)cc(=O)[nH]1)N1CCc2cc(F)c(F)cc21` [Example 147, 2-[2-(5,6-Difluoro-2,3-dihydroindol-1-yl)-2-oxoethyl]-6-morpholin-4-yl-3H-pyrimidin-4-one], with 4 nM; and `O=C(Cc1nc(N2CCOCC2)cc(=O)[nH]1)Nc1cccc(C(F)(F)F)c1O` [Example 153, N-[2-hydroxy-3-(trifluoromethyl)phenyl]-2-[4-(morpholin-4-yl)-6-oxo-1,6-dihydropyrimidin-2-yl]acetamide], with 49 nM.
Then `O=C(Nc1ccc(F)cc1)C(F)(F)c1nc(N2CCOCC2)cc(=O)[nH]1` [Example 77, 2,2-difluoro-N-(4-fluorophenyl)-2-[4-(morpholin-4-yl)-6-oxo-1,6-dihydropyrimidin-2-yl]acetamide], with 698 nM; and `O=C(Cc1nc(N2CCOCC2)cc(=O)[nH]1)N1CCc2c(Br)cccc21` [Example 135, 2-[2-(4-Bromo-2,3-dihydroindol-1-yl)-2-oxoethyl]-6-morpholin-4-yl-3H-pyrimidin-4-one], with 1 nM; and `O=C(Cc1nc(N2CCOCC2)cc(=O)[nH]1)Nc1cccnc1` [Example 30, 2-[4-(morpholin-4-yl)-6-oxo-1,6-dihydropyrimidin-2-yl]-N-(pyridin-3-yl)acetamide], with 1030 nM.
`O=C(Cc1nc(N2CCOCC2)cc(=O)[nH]1)N1CCc2c(Cl)cccc21` [Example 89, 2-[2-(4-chloro-2,3-dihydro-1 H-indol-1-yl)-2-oxoethyl]-6-(morpholin-4-yl)pyrimidin-4(3 H)-one] yielded an IC50 of 3 nM.
The figure for `Cn1c(CC(=O)Nc2ccccc2)nc(N2CCOCC2)cc1=O` [Example 85, 2-[1-methyl-4-(morpholin-4-yl)-6-oxo-1,6-dihydropyrimidin-2-yl]-N-phenylacetamide] is 340 nM.
Then `Cc1cccc(NC(=O)Cc2nc(N3CCOCC3)cc(=O)[nH]2)c1O` [Example 150, N-(2-hydroxy-3-methylphenyl)-2-[4-(morpholin-4-yl)-6-oxo-1,6-dihydropyrimidin-2-yl]acetamide], with 189 nM.
Then `O=C(Cc1nc(N2CCOCC2)cc(=O)[nH]1)Nc1ccccc1OCc1cccnc1` [Example 113, 2-[4-(morpholin-4-yl)-6-oxo-1,6-dihydropyrimidin-2-yl]-N-[2-(pyridin-3-ylmethoxy)phenyl]acetamide], with 664 nM; and `O=C(Cc1nc(N2CCOCC2)cc(=O)[nH]1)N1Cc2ccccc2C1` [Example 129, 2-[2-(1,3-dihydro-2H-isoindol-2-yl)-2-oxoethyl]-6-(morpholin-4-yl)pyrimidin-4(3H)-one], with 1000 nM.
In turn, `COCCOc1cc(F)ccc1NC(=O)Cc1nc(N2CCOCC2)cc(=O)[nH]1` [Example 138, N-[4-fluoro-2-(2-methoxyethoxy)phenyl]-2-[4-(morpholin-4-yl)-6-oxo-1,6-dihydropyrimidin-2-yl]acetamide] showed an IC50 of 35 nM.
Take `Cn1c(CC(=O)N2CCc3c2ccc(F)c3F)nc(N2CCOCC2)cc1=O` [Example 128, 2-[2-(4,5-difluoro-2,3-dihydro-1H-indol-1-yl)-2-oxoethyl]-3-methyl-6-(morpholin-4-yl)pyrimidin-4(3H)-one]: half-maximal inhibition (IC50) was put at 69 nM.
Then `O=C(Cc1nc(N2CCOCC2)cc(=O)[nH]1)Nc1ccc(F)c(I)c1` [Example 74, N-(4-fluoro-3-iodophenyl)-2-[4-(morpholin-4-yl)-6-oxo-1,6-dihydropyrimidin-2-yl]acetamide], with 10 nM.
As for `NC(=O)C1Cc2ccccc2N1C(=O)Cc1nc(N2CCOCC2)cc(=O)[nH]1` (stereo not drawn) [Example 122, 1-{[4-(morpholin-4-yl)-6-oxo-1,6-dihydropyrimidin-2-yl]acetyl}-2,3-dihydro-1H-indole-2-carboxamide], it took 503 nM to reach half-maximal inhibition (IC50).
The figure for `CC1Cc2ccccc2N1C(=O)Cc1nc(N2CCOCC2)cc(=O)[nH]1` (stereo not drawn) [Example 96, 2-[2-(2-methyl-2,3-dihydro-1H-indol-1-yl)-2-oxoethyl]-6-(morpholin-4-yl)pyrimidin-4(3H)-one] is 6 nM; for `COc1cc(NC(=O)Cc2nc(N3CCOCC3)cc(=O)n2C)ccc1F` [Example 83, N-(4-fluoro-3-methoxyphenyl)-2-[1-methyl-4-(morpholin-4-yl)-6-oxo-1,6-dihydropyrimidin-2-yl]acetamide] it is 115 nM; for `O=C(Cc1nc(N2CCOCC2)cc(=O)[nH]1)Nc1ccc(F)cc1OCC1CCNCC1` [Example 133, N-[4-fluoro-2-(piperidin-4-ylmethoxy)phenyl]-2-[4-(morpholin-4-yl)-6-oxo-1,6-dihydropyrimidin-2-yl]acetamide] it is 174 nM.
Regarding `O=C(Cc1nc(N2CCOCC2)cc(=O)[nH]1)Nc1cccc2[nH]cnc12` [Example 139, N-(1H-benzimidazol-4-yl)-2-[4-(morpholin-4-yl)-6-oxo-1,6-dihydropyrimidin-2-yl]acetamide], half-maximal inhibition (IC50) required 3000 nM.
On to `N#Cc1cccc(NC(=O)Cc2nc(N3CCOCC3)cc(=O)[nH]2)c1O` [Example 152, N-(3-cyano-2-hydroxyphenyl)-2-[4-(morpholin-4-yl)-6-oxo-1,6-dihydropyrimidin-2-yl]acetamide], for which the IC50 came to 938 nM.
Then `Cn1c(CC(=O)Nc2ccc(F)c(Br)c2)nc(N2CCOCC2)cc1=O` [Example 80, N-(3-bromo-4-fluorophenyl)-2-[1-methyl-4-(morpholin-4-yl)-6-oxo-1,6-dihydropyrimidin-2-yl]acetamide], with 94 nM; and `C[C@H]1CN(C(=O)Cc2nc(N3CCOCC3)cc(=O)[nH]2)c2ccccc21` [Example 126, 2-{2-[(3R)-3-methyl-2,3-di hydro-1H-indol-1-yl]-2-oxoethyl}-6-(morpholin-4-yl)pyrimidin-4(3H)-one], with 57 nM; and `O=C(Cc1nc(N2CCOCC2)cc(=O)[nH]1)N1CCc2c(O)cccc21` [Example 91, 2-[2-(4-hydroxy-2,3-dihydro-1H-indol-1-yl)-2-oxoethyl]-6-(morpholin-4-yl)pyrimidin-4(3H)-one], with 71 nM.
The figure for `O=C(Cc1nc(N2CCOCC2)cc(=O)[nH]1)Nc1ccc(F)c(C(=O)O)c1` [Example 64, 2-fluoro-5-(([4-(morpholin-4-yl)-6-oxo-1,6-dihydropyrimidin-2-yl]acetyl)amino)benzoic acid] is 10000 nM; for `O=C(Cc1nc(N2CCOCC2)cc(=O)[nH]1)Nc1cc(F)c(F)cc1F` [Example 60, 2-[4-(morpholin-4-yl)-6-oxo-1,6-dihydropyrimidin-2-yl]-N-(2,4,5-trifluorophenyl)acetamide] it is 290 nM.
Then `O=C(Cc1nc(N2CCOCC2)cc(=O)[nH]1)Nc1ccccc1OCCN1CCCCC1` [Example 107, 2-[4-(morpholin-4-yl)-6-oxo-1,6-dihydropyrimidin-2-yl]-N-{2-[2-(piperidin-1-yl)ethoxy]phenyl}acetamide], with 24 nM.
The compound `C[C@@H]1CN(C(=O)Cc2nc(N3CCOCC3)cc(=O)[nH]2)c2ccccc21` [Example 125, 2-{2-[(3S)-3-methyl-2,3-dihydro-1H-indol-1-yl]-2-oxoethyl}-6-(morpholin-4-yl)pyrimidin-4(3 H)-one] yielded an IC50 of 16 nM. This IC50 is about 1.5-fold lower than that of the compound before.
The figure for `O=C(Cc1nc(N2CCOCC2)cc(=O)[nH]1)N1CCc2ncccc21` [Example 146, 2-[2-(2,3-dihydro-1H-pyrrolo[3,2-b]pyridin-1-yl)-2-oxoethyl]-6-(morpholin-4-yl)pyrimidin-4(3H)-one] is 180 nM.
Then `O=C(Cc1nc(N2CCOCC2)cc(=O)[nH]1)N1CCOc2c(Cl)cccc21` [Example 149, 2-[2-(8-chloro-2,3-dihydro-4H-1,4-benzoxazin-4-yl)-2-oxoethyl]-6-(morpholin-4-yl)pyrimidin-4(3H)-one], with 43 nM.

The record behind these values is patent US8993565B2, “(6-oxo-1,6-dihydropyrimidin-2-yl)amide derivatives, preparation thereof and pharmaceutical use thereof as AKT(PKB) phosphorylation inhibitors” (Sanofi, priority 2009, dated 2015).
